From patent US8163921B2, “Hepatitis C virus inhibitors” (Bristol-Myers Squibb Company, priority 2008, dated 2012)
Read-outs that look alike come from different tables or passages of the source.

How the values were obtained:
[1] = target: T1, HCV NS3/4A protease complex, BMS strain (UniProt P27958, C1454S/C1711G, species not given); assay: FRET peptide assay to monitor HCV NS3/4A proteolytic activity (BMS strain); type: biochemical, HCV genotype 1a; conditions: read-out: IC50 Range, HCV NS3/4A enzyme assay
T1 construct: other: HCV NS3/4A enzyme assay; class symbols; numeric values; fused on or other part: three-lysine solubilising tail at the C-terminus of NS4A; purified on Ni-NTA from the pET21b vector (His tag implied)
Summary of the method: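 Recombinant HCV NS3/4A protease complex (BMS strain, genotype 1a), 2-3 nM final (300 pM with 50 μg/ml BSA for very potent compounds), incubated with RET S1 EDANS/DABCYL depsipeptide substrate at 2 μM final. Buffer: 50 mM HEPES pH 7.5, 0.15 M NaCl, 0.1% Triton, 15% glycerol, 10 mM βME. Cleavage followed in real time by fluorescence.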

[2] = system: HCV replicon in HUH-7 cells; assay: HCV replicon FRET assay; type: cell-based, HCV strain 1b; conditions: Hepatitis C virus
Description: An HCV replicon whole cell system was established as described by Lohmann V, Korner F, Koch J, Herian U, Theilmann L, Bartenschlager R., Science 285(5424):110-3 (1999). This system enabled us to evaluate the effects of our HCV Protease compounds on HCV RNA replication. Briefly, using the HCV strain 1b sequence described in the Lohmann paper (Assession number:AJ238799), an HCV cDNA was synthesized by Operon Technologies, Inc. (Alameda, Calif.), and the full-length replicon was then assembled in plasmid pGem9zf(+) (Promega, Madison, Wis.) using standard molecular biology techniques. The replicon consists of (i) the HCV 5′ UTR fused to the first 12 amino acids of the capsid protein, (ii) the neomycin phosphotransferase gene (neo), (iii) the IRES from encephalomyocarditis virus (EMCV), and (iv) HCV NS3 to NS5B genes and the HCV 3′ UTR. Plasmid DNAs were linearized with ScaI and RNA transcripts were synthesized in vitro using the T7 MegaScript transcription kit (Ambion, Austin, Tex.) according to manufacturer's directions. In vitro transcripts of the eDNA were transfected into the human hepatoma cell line, HUH-7. […] Resulting cell lines were characterized for positive and negative strand RNA production and protein production over time.
The HCV replicon FRET assay was developed to monitor the inhibitory effects of compounds described in the disclosure on HCV viral replication. HUH-7 cells, constitutively expressing the HCV replicon, were grown in Dulbecco's Modified Eagle Media (DMEM) (Gibco-BRL) containing 10% Fetal calf serum (FCS) (Sigma) and 1 mg/ml G418 (Gibco-BRL). Cells were seeded the night before (1.5×10^4 cells/well) in 96-well tissue-culture sterile plates. Compound and no compound controls were prepared in DMEM containing 4% FCS, 1:100 Penicillin/Streptomysin (Gibco-BRL), 1:100 L-glutamine and 5% DMSO in the dilution plate (0.5% DMSO final concentration in the assay). Compound/DMSO mixes were added to the cells and incubated for 4 days at 37° C. After 4 days, cells were first assessed for cytotoxicity using alamar Blue (Trek Diagnotstic Systems) for a CC50 reading. The toxicity of compound (CC50) was determined by adding 1/10th volume of alamar Blue to the media incubating the cells. After 4 h, the fluorescence signal from each well was read, with an excitation wavelength at 530 nm and an emission wavelength of 580 nm, using the Cytofluor Series 4000 (Perspective Biosystems). Plates were then rinsed thoroughly with Phosphate-Buffered Saline (PBS) (3 times 150 μl).

[3] = Huh-7, HCV replicon cell assay, numeric values, read-out: EC50 Range

| SMILES | IC50 ([1]; class symbols) | EC50 ([2]; Huh-7, read-out: EC50 Range) | IC50 ([1]; numeric values) | EC50 [2, 3] |
| --- | --- | --- | --- | --- |
| C=C[C@@H]1C[C@]1(NC(=O)[C@@H]1C[C@@H](Oc2ncc(OC)c3ccc(Cl)cc23)CN1C(=O)[C@@H](Nc1nc(-c2ccc(Cl)c(Cl)c2)cs1)C(C)(C)C)C(=O)NS(=O)(=O)C1CC1 [Example 29] | 1 to 20 nM | 1 to 50 nM |  |  |
| C=C[C@@H]1C[C@]1(NC(=O)[C@@H]1C[C@@H](Oc2ncc(OC)c3ccc(Cl)cc23)CN1C(=O)[C@@H](Nc1nc(-c2cc(OC)ccc2OC)cs1)C(C)(C)C)C(=O)NS(=O)(=O)C1CC1 [Example 30] | 1 to 20 nM | 1 to 50 nM |  |  |
| C=C[C@@H]1C[C@]1(NC(=O)[C@@H]1C[C@@H](Oc2ncc(OC)c3ccc(Cl)cc23)CN1C(=O)[C@@H](Nc1nc(-c2ccc(Br)cc2)cs1)C(C)(C)C)C(=O)NS(=O)(=O)C1CC1 [Example 31] | 1 to 20 nM | 1 to 50 nM |  |  |
| C=C[C@@H]1C[C@]1(NC(=O)[C@@H]1C[C@@H](Oc2ncc(OC)c3ccc(Cl)cc23)CN1C(=O)[C@@H](Nc1nc(-c2ccc(F)cc2)cs1)C(C)(C)C)C(=O)NS(=O)(=O)C1CC1 [Example 32] | 1 to 20 nM | 1 to 50 nM |  |  |
| C=C[C@@H]1C[C@]1(NC(=O)[C@@H]1C[C@@H](Oc2ncc(OC)c3ccc(Cl)cc23)CN1C(=O)[C@@H](Nc1nc(-c2ccccc2OC)cs1)C(C)(C)C)C(=O)NS(=O)(=O)C1CC1 [Example 33] |  |  | 9 nM | 6.84 nM |
| C=C[C@@H]1C[C@]1(NC(=O)[C@@H]1C[C@@H](Oc2ncc(OC)c3ccc(Cl)cc23)CN1C(=O)[C@@H](Nc1nc(-c2ccc(C)cc2C)cs1)C(C)(C)C)C(=O)NS(=O)(=O)C1CC1 [Example 34] | 1 to 20 nM | 1 to 50 nM |  |  |
| C=C[C@@H]1C[C@]1(NC(=O)[C@@H]1C[C@@H](Oc2ncc(OC)c3ccc(Cl)cc23)CN1C(=O)[C@@H](Nc1nc(-c2cccc(OC)c2)cs1)C(C)(C)C)C(=O)NS(=O)(=O)C1CC1 [Example 35] | 1 to 20 nM | 1 to 50 nM |  |  |
| C=C[C@@H]1C[C@]1(NC(=O)[C@@H]1C[C@@H](Oc2ncc(OC)c3ccc(Cl)cc23)CN1C(=O)[C@@H](Nc1nc(-c2ccc3c(c2)OCCO3)cs1)C(C)(C)C)C(=O)NS(=O)(=O)C1CC1 [Example 36] | 1 to 20 nM | 1 to 50 nM |  |  |
| C=C[C@@H]1C[C@]1(NC(=O)[C@@H]1C[C@@H](Oc2ncc(OC)c3ccc(Cl)cc23)CN1C(=O)[C@@H](Nc1nc(-c2ccc(Cl)cc2Cl)cs1)C(C)(C)C)C(=O)NS(=O)(=O)C1CC1 [Example 37] | 20 to 200 nM | 1 to 50 nM |  |  |
| C=C[C@@H]1C[C@]1(NC(=O)[C@@H]1C[C@@H](Oc2ncc(OC)c3ccc(Cl)cc23)CN1C(=O)[C@@H](Nc1nc(-c2ccc(Cl)cc2)cs1)C(C)(C)C)C(=O)NS(=O)(=O)C1CC1 [Example 38] | 1 to 20 nM | 1 to 50 nM |  |  |
| C=C[C@@H]1C[C@]1(NC(=O)[C@@H]1C[C@@H](Oc2ncc(OC)c3ccc(Cl)cc23)CN1C(=O)[C@@H](Nc1nc(-c2ccccc2F)cs1)C(C)(C)C)C(=O)NS(=O)(=O)C1CC1 [Example 39] | 1 to 20 nM | 1 to 50 nM |  |  |
| C=C[C@@H]1C[C@]1(NC(=O)[C@@H]1C[C@@H](Oc2ncc(OC)c3ccc(Cl)cc23)CN1C(=O)[C@@H](Nc1nc(-c2ccc3c(c2)OCO3)cs1)C(C)(C)C)C(=O)NS(=O)(=O)C1CC1 [Example 40] | 1 to 20 nM | 1 to 50 nM |  |  |
| C=C[C@@H]1C[C@]1(NC(=O)[C@@H]1C[C@@H](Oc2ncc(OC)c3ccc(Cl)cc23)CN1C(=O)[C@@H](Nc1nc(-c2ccc(N3CCOCC3)cc2)cs1)C(C)(C)C)C(=O)NS(=O)(=O)C1CC1 [Example 41] | 1 to 20 nM | 1 to 50 nM |  |  |
| C=C[C@@H]1C[C@]1(NC(=O)[C@@H]1CC(Oc2ncc(OC)c3ccc(Cl)cc23)CN1C(=O)[C@@H](Nc1nc(-c2nc3ccccc3n2C)cs1)C(C)(C)C)C(=O)NS(=O)(=O)C1CC1 (stereo partly drawn) [Example 42] | 1 to 20 nM | 1 to 50 nM |  |  |
| C=C[C@@H]1C[C@]1(NC(=O)[C@@H]1C[C@@H](Oc2ncc(OC)c3ccc(Cl)cc23)CN1C(=O)[C@@H](Nc1nc(-c2cccc(F)c2)cs1)C(C)(C)C)C(=O)NS(=O)(=O)C1CC1 [Example 43] | 1 to 20 nM | 1 to 50 nM |  |  |
| C=C[C@@H]1C[C@]1(NC(=O)[C@@H]1C[C@@H](Oc2ncc(OC)c3ccc(Cl)cc23)CN1C(=O)[C@@H](Nc1nc(-c2ccc(N(CC)CC)cc2)cs1)C(C)(C)C)C(=O)NS(=O)(=O)C1CC1 [Example 44] | 1 to 20 nM | 1 to 50 nM |  |  |
| C=C[C@@H]1C[C@]1(NC(=O)[C@@H]1C[C@@H](Oc2ncc(OC)c3ccc(Cl)cc23)CN1C(=O)[C@@H](Nc1nc(-c2ccccc2)c(-c2ccccc2)s1)C(C)(C)C)C(=O)NS(=O)(=O)C1CC1 [Example 45] | 1 to 20 nM | 1 to 50 nM |  |  |
| C=C[C@@H]1C[C@]1(NC(=O)[C@@H]1C[C@@H](Oc2ncc(OC)c3ccc(Cl)cc23)CN1C(=O)[C@@H](Nc1nc(-c2ccc(C(=O)O)cc2)cs1)C(C)(C)C)C(=O)NS(=O)(=O)C1CC1 [Example 46] | 1 to 20 nM | 1 to 50 nM |  |  |
| C=C[C@@H]1C[C@]1(NC(=O)[C@@H]1C[C@@H](Oc2ncc(OC)c3ccc(Cl)cc23)CN1C(=O)[C@@H](Nc1nc(-c2c(F)c(F)c(F)c(F)c2F)cs1)C(C)(C)C)C(=O)NS(=O)(=O)C1CC1 [Example 47] | 1 to 20 nM | 1 to 50 nM |  |  |
| C=C[C@@H]1C[C@]1(NC(=O)[C@@H]1C[C@@H](Oc2ncc(OC)c3ccc(Cl)cc23)CN1C(=O)[C@@H](Nc1nc(-c2cccc(Cl)c2)cs1)C(C)(C)C)C(=O)NS(=O)(=O)C1CC1 [Example 48] | 1 to 20 nM | 1 to 50 nM |  |  |
| C=C[C@@H]1C[C@]1(NC(=O)[C@@H]1C[C@@H](Oc2ncc(OC)c3ccc(Cl)cc23)CN1C(=O)[C@@H](Nc1nc(-c2ccccc2Cl)cs1)C(C)(C)C)C(=O)NS(=O)(=O)C1CC1 [Example 49] | 1 to 20 nM | 1 to 50 nM |  |  |
| C=C[C@@H]1C[C@]1(NC(=O)[C@@H]1C[C@@H](Oc2ncc(OC)c3ccc(Cl)cc23)CN1C(=O)[C@@H](Nc1nc(-c2ccccc2O)cs1)C(C)(C)C)C(=O)NS(=O)(=O)C1CC1 [Example 50] |  |  | 39 nM | 18.9 nM |
| C=C[C@@H]1C[C@]1(NC(=O)[C@@H]1C[C@@H](Oc2ncc(OC)c3ccc(Cl)cc23)CN1C(=O)[C@@H](Nc1nc(-c2ccc(OC)cc2F)cs1)C(C)(C)C)C(=O)NS(=O)(=O)C1CC1 [Example 51] | 1 to 20 nM | 1 to 50 nM |  |  |
| C=C[C@@H]1C[C@]1(NC(=O)[C@@H]1C[C@@H](Oc2ncc(OC)c3ccc(Cl)cc23)CN1C(=O)[C@@H](Nc1nc(-c2ccc(F)c(Cl)c2)cs1)C(C)(C)C)C(=O)NS(=O)(=O)C1CC1 [Example 52] | 1 to 20 nM | 1 to 50 nM |  |  |
| C=C[C@@H]1C[C@]1(NC(=O)[C@@H]1C[C@@H](Oc2ncc(OC)c3ccc(Cl)cc23)CN1C(=O)[C@@H](Nc1nc(-c2cc(Cl)cc(Cl)c2F)cs1)C(C)(C)C)C(=O)NS(=O)(=O)C1CC1 [Example 53] |  |  | 17 nM | 20.3 nM |
| C=C[C@@H]1C[C@]1(NC(=O)[C@@H]1C[C@@H](Oc2ncc(OC)c3ccc(Cl)cc23)CN1C(=O)[C@@H](Nc1nc(-c2cc(C)ccc2OC)cs1)C(C)(C)C)C(=O)NS(=O)(=O)C1CC1 [Example 54] | 1 to 20 nM | 1 to 50 nM |  |  |
| C=C[C@@H]1C[C@]1(NC(=O)[C@@H]1C[C@@H](Oc2ncc(OC)c3ccc(Cl)cc23)CN1C(=O)[C@@H](Nc1nc(-c2cc(Cl)cc(Cl)c2OC)cs1)C(C)(C)C)C(=O)NS(=O)(=O)C1CC1 [Example 55] | 1 to 20 nM | 1 to 50 nM |  |  |
